These results are taken from paper PMC9546217, “Exploring novel nitrofuranyl sulfonohydrazides as anti‐Leishmania and anti‐cancer agents: Synthesis, in vitro efficacy and hit identification” (Chemical Biology & Drug Design, 2022).

Like-named read-outs stand apart in the source and are kept apart here.

One series concerns Vero cells. Kind of series: in vitro. The protocol:
The assay method is available in the Supinfo S1.
African green monkey kidney epithelial (Vero) cells (Cellonex, South Africa) were cultured and the basal cytotoxicity of the synthesized compounds with antileishmanial and/or anticancer activity was evaluated using the resazurin assay, as described in Mangwegape et al. ^4 Emetine served as the standard cytotoxic drug. Further use of reference drugs, controls, data analysis, calculations and IC50 determinations were identical to that of the antileishmanial assay.

For another series, the system named is THP‐1 cells. Kind of series: Cytotoxicity on differentiated host THP-1 macrophages, resazurin assay. As to conditions: differentiated THP-1 macrophages, 72 h; read-out: Cytotoxicity, IC50 ± SD, THP‐1. It is filed as cell-based, human. The protocol: (§1) Duplicate 96‐well plates (for respective anti‐amastigote and cytotoxicity assays) were seeded with 200 μl of a 2.5 × 10^5 cells/ml suspension treated with 25 ng/ml phorbol 12‐myristate 13‐acetate (PMA), followed by 48‐h incubation to promote differentiation into adherent macrophages.
(§2) Cytotoxicity of the compounds on the differentiated host THP-1 cells were also evaluated. As mentioned, duplicate plates of differentiated THP-1 cells were prepared during the anti-amastigote assay. These plates were incubated for 72 hours to differentiate, instead of replacing the growth medium with parasite-containing medium after 48 hours. […] Blanks were growth medium without cells. The treated plates were incubated for 72 hours, followed by the addition of 50 μL of resazurin solution (0.01% in PBS) to each well and 24-hour incubation.
Background: The colour change of resazurin is a common sign of viable cells or microbes.

Series [1] has as its system L. donovani strain 1S promastigotes. Kind of series: Antipromastigote assay (resazurin). It counts as cell-based. As to conditions: L. donovani 1S, read-out: 1S IC50 ± SD, Promastigote. How it is done:
(§3) The antipromastigote activity of synthesized compounds was evaluated as described previously by Mangwegape et al. ([2021]) using three strains of L. donovani (1S (MHOM/SD/62/1S) and 9515 (MHOM/IN/95/9515)) and L. major (IR‐173 [MHOM/IR/−173]). The assay method is available in the Supinfo S1.
(§4) The antipromastigote activity of synthesized compounds was evaluated using a modified, resazurin-based method of Kulshrestha et al. ^2 and Siqueira-Neto et al. ^3 and on three Leishmania strains. Leishmania donovani (strains 1S (MHOM/SD/62/1S) and 9515 (MHOM/IN/95/9515)) and L. major (strain IR-173 (MHOM/IR/-173)) promastigotes were cultured in M199 with Hank's salts and 0.68 mM L-glutamine (Sigma Aldrich) supplemented with 50 U/mL Penicillin/Streptomycin solution (Lonza), 4.2 mM sodium bicarbonate, 25 mM Hepes, 10% fetal bovine serum, 0.25% hemin, 0.1% biotin, and 10 mM adenine (Sigma Aldrich) and the pH adjusted to 7.3 – 7.4. The promastigotes were maintained at 25 °C.
(§5) Amphothericin B (10 μM) served as the standard drug and growth medium without parasites served as the blank. The plates were incubated for 48 hours at 25 °C in humidified atmosphere. After incubation, 50 μL of resazurin solution (0.01% in PBS) was added to each well and the plates were further incubated at 25 °C in the dark for 24 hours. Absorbance was measured at 570 nm and 600 nm using the Thermofisher Scientific GO Multiscan plate reader. Data analysis was performed for each biological replicate using SkanIt 4.0 Research Edition software. Background absorbance of resazurin (600 nm) was subtracted from the absorbance values of resorufin (570 nm). The mean absorbance calculated and the percentage growth inhibition and cell viability were determined by the following equations: […]
(§6) The IC50 and Z-score were determined for each compound’s three biological replicates using the cell viability % values and GraphPad Prism 5. The mean IC50 of the biological replicates with standard deviation (SD) served as the final IC50 of each compound.

Series [2] deals with L. donovani strain 9515 promastigotes. Kind of series: Antipromastigote assay (resazurin). The note with it: L. donovani 9515, read-out: 9515 IC50 ± SD, Promastigote. It counts as cell-based. The protocol:
as §3, §4, §5, §6

In series [3] the test system is L. major strain IR‐173 promastigotes. Description: Antipromastigote assay (resazurin). It is filed as cell-based. As to conditions: L. major IR‐173, read-out: Antileishmanial activity, IC50 ± SD, Promastigote. How it is done: as §3, §4, §5, §6
Series [4] relates to L. donovani strains (1S and 9515) amastigotes. Kind of series: Anti-amastigote selectivity, strain not separated. It is filed as cell-based. The note with it: strain not given. How it is done: The activities of synthesized compounds against the intramacrophage parasites of the three Leishmania strains were evaluated using a modified, resazurin‐based method (Jain et al., [2012]; Njanpa et al., [2021]). Suspension cultures of human acute monocytic leukemia (THP‐1) cells were maintained in RPMI‐1640 medium (Sigma Aldrich) supplemented with 10% FBS and 1% penicillin–streptomycin, at 37°C and 5% CO2 in a humidified atmosphere. Duplicate 96‐well plates (for respective anti‐amastigote and cytotoxicity assays) were seeded with 200 μl of a 2.5 × 10^5 cells/ml suspension treated with 25 ng/ml phorbol 12‐myristate 13‐acetate (PMA), followed by 48‐h incubation to promote differentiation into adherent macrophages.
For the anti‐amastigote assay, differentiated plates were carefully washed with PBS, followed by the addition of 200 μl of stationary phase promastigotes in RPMI 1640 medium with 2% FBS. An MOI of 30:1 was used for all three Leishmania strains. The parasite‐treated plates were incubated for 24 h at 32°C (L. major) or 37°C (L. donovani) and 5% CO2 to promote infection of the macrophages. […] Blanks were represented by growth medium without cells, as well as parasite‐free THP‐1 cells. The treated plates were incubated for 72 h.
After incubation, the plates were gently washed three times with PBS to remove any remaining extracellular parasites. The wells were then treated with 20 μl of 0.05% sodium dodecyl sulfate in PBS for 30 s to lyse the host macrophages. Lysis was terminated by adding 180 μl promastigote growth medium with 10% FBS. To initiate the resazurin assay, 10 μl of resazurin solution (0.025% in PBS) was added to all wells and the plates were incubated for 24 h at 32°C (L. major) or 37°C (L. donovani) and 5% CO2. Absorbance measurements, calculations, and IC50 determinations were performed as described for the antipromastigote assay (Supinfo S1).

Series [5] in a line: Cytotoxicity on differentiated host THP-1 macrophages, resazurin assay. It counts as cell-based, human. The note with it: human, PMA-differentiated THP-1 macrophages, read-out: Cytotoxicity, IC50 ± SD, THP‐1. The protocol: as §1, §2
For series [6], the system named is Staphylococcus aureus (ATCC 25923). More on the design: method as in Alsaeedi et al., [2015]. The note with it: diffusion method; ref Alsaeedi et al., [2015]; cited from earlier work.
For series [7], the system named is Escherichia coli (ATCC 25922). Set-up: method as in Alsaeedi et al., [2015]. The note with it: diffusion method; ref Alsaeedi et al., [2015]; cited from earlier work.
For series [8], the system named is Pseudomonas aeruginosa (ATCC 27853). Set-up: method as in Alsaeedi et al., [2015]. The note with it: diffusion method; ref Alsaeedi et al., [2015]; cited from earlier work.
Series [9] deals with Candida albicans (ATCC 10231). Set-up: method as in Alsaeedi et al., [2015]. The note with it: diffusion method; ref Alsaeedi et al., [2015]; cited from earlier work.

For “(E)-2,4,6-Trimethyl-N'-[(5-nitrofuran-2-yl)methylene]benzenesulfonohydrazide [2e]”, the IC50 (commonly the concentration that gives 50% inhibition) in the series on Vero cells is 39.8 ± 5.89 µM; with THP‐1 cells it was above 100 µM; in series [1], 3.04 ± 0.04 µM; in series [2], 3.97 ± 1.08 µM; in series [3] it was 7.09 ± 0.74 µM. Moreover, in [4], the “selectivity index (SI) relative to the host THP‐1 cells” value is above 10. In [4], the “selectivity index (SI) toward Vero cells” value is reported as below 10.
On to `CC(C)c1ccc(S(=O)(=O)N/N=C/c2ccc([N+](=O)[O-])o2)cc1` [2d, (E)-4-Isopropyl-N'-[(5-nitrofuran-2-yl)methylene]benzenesulfonohydrazide], for which the IC50 at 72 h in series [5] amounted to 93.1 ± 3.51 µM. Besides, the IC50 is 5 ± 1.32 µM in [1] (Leishmania donovani), 3.62 ± 0.65 µM in [2] (Leishmania donovani) and 4.71 ± 0.33 µM in series [3] (Leishmania major).
`CC(C)(C)c1ccc(S(=O)(=O)N/N=C/c2ccc([N+](=O)[O-])o2)cc1` [2f, (E)-4-(tert-Butyl)-N'-[(5-nitrofuran-2-yl)methylene]benzenesulfonohydrazide]: the 50% inhibitory concentration (IC50) at 72 h in series [5] turned out to be 84.6 ± 2.16 µM. Moreover, the IC50 in series [1] (Leishmania donovani) came out at 5.29 ± 0.69 µM; in [2] (Leishmania donovani), 3.5 ± 0.58 µM; in series [3] (Leishmania major), 6.93 ± 0.83 µM. Also, in series [4], the “selectivity index (SI) relative to the host THP‐1 cells” value is recorded as above 10. In addition, in [4], the “selectivity index (SI) toward Vero cells” value is below 10.
On to `O=[N+]([O-])c1ccc(/C=N/NS(=O)(=O)c2cccc3c2OCCO3)o1` [2l, (E)-N'-[(5-Nitrofuran-2-yl)methylene]-2,3-dihydrobenzo[b][1,4]dioxine-5-sulfonohydrazide], for which, in series [5], the IC50 at 72 h is above 100 µM. Also, the values for the IC50 in series [1] (Leishmania donovani), in series [2] (Leishmania donovani) and in [3] (Leishmania major) were 9.24 ± 1.32 µM, 7.25 ± 0.11 µM and 8.1 ± 0.03 µM, respectively. Moreover, the “selectivity index (SI) relative to the host THP‐1 cells” value in series [4] is above 10. Besides, the “selectivity index (SI) toward Vero cells” value in series [4] is given as below 10.
For `O=[N+]([O-])c1ccc(/C=N/NS(=O)(=O)c2ccc(-c3ccccc3)cc2)o1` [2h, (E)-N'-[(5-Nitrofuran-2-yl)methylene]-(1,1'-biphenyl)-4-sulfonohydrazide], in [5], the IC50 at 72 h was found to be 50.4 ± 2.26 µM. In addition, the IC50 stood at 1.45 ± 0.16 µM in [1] (Leishmania donovani), 1.53 ± 0.14 µM in [2] (Leishmania donovani) and 2.49 ± 0.51 µM in series [3] (Leishmania major). In addition, the “selectivity index (SI) relative to the host THP‐1 cells” value in [4] is recorded as above 10. For the same compound, the “selectivity index (SI) toward Vero cells” value in series [4] was below 10.
For `Cc1ccc(S(=O)(=O)N/N=C/c2ccc([N+](=O)[O-])o2)cc1` [2c, (E)-4-Methyl-N'-[(5-nitrofuran-2-yl)methylene]benzenesulfonohydrazide], the concentration for half-maximal inhibition (IC50) in series [1] (Leishmania donovani), in [2] (Leishmania donovani) and in [3] (Leishmania major) was above 10 µM in each case. The “antimicrobial activity (inhibition zone)” value in series [6], in [7], in series [8] and in series [9] was “no activity” throughout.
Take `O=C1CN(/N=C/c2ccc([N+](=O)[O-])o2)C(=O)N1` [NFT, nitrofurantoin, reference compound]: the IC50 at 72 h in [5] was above 100 µM. The IC50 in [1] (Leishmania donovani), in series [2] (Leishmania donovani) and in [3] (Leishmania major) was above 10 µM throughout.
For the compound `O=C(N/N=C/c1ccc([N+](=O)[O-])o1)c1ccc(O)cc1` [NFX, Nifuroxazide, reference compound], the IC50 at 72 h in series [5] was above 100 µM. In addition, the IC50 in [1] (Leishmania donovani), in [2] (Leishmania donovani) and in [3] (Leishmania major) was above 10 µM each time.
For `O=Cc1ccc([N+](=O)[O-])o1` [NFA, 5‐nitro‐2‐furaldehyde, reference compound], the IC50 is 80.9 ± 6.37 µM with THP‐1 cells, 6.39 ± 0.26 µM in series [1] (Leishmania donovani), above 10 µM in series [2] (Leishmania donovani) and 7.28 ± 0.1 µM in series [3] (Leishmania major).
